Patent publication US20190369111A1, “MOLECULAR KINETICS EVALUATION METHOD AND SCREENING METHOD” (Tokyo University of Science Foundation, priority 2016, published 2019)

Target: T1, wild-type K-Ras protein (Homo sapiens, UniProt P01116)
T1 construct: expressed in transfected cells; host or cells: HeLa cells, transient transfection
Assay: Degradation (knockdown) of forcibly expressed wild-type K-Ras protein in HeLa cells, FACS analysis
Assay type: cell-based
Experimental: A plasmid expressing a wild-type K-Ras protein (K-Ras-WT) was prepared using a plasmid (pMIR-DsRed-IRES-ecDHFR-HA-GFP) expressing an ecDHFR protein by RF cloning. The full-length cDNA clone (Accession No. AK292510) of a human K-ras gene was purchased from Independent Administrative Institution, the National Institute of Technology and Evaluation. PCR amplification was performed using KOD-Plus-Neo (TOYOBO CO., LTD) as a PCR enzyme.
The plasmid was introduced into HeLa cells to transiently overexpress a wild-type K-Ras protein (specifically, a fusion protein of a wild-type K-Ras protein and GFP via a HA tag) or a DsRed protein for comparison in the cells.
ScreenFect™A (Wako Pure Chemical Industries, Ltd.) as a transfection reagent was used to introduce the plasmid into HeLa cells by a routine procedure. The HeLa cells into which the plasmid had been introduced were seeded in a 24-well plate at a cell density of 4×10^4 cells/well, and then cultured under conditions of 37° C. and 5 vol % CO2 for 40 hours. […]
A BD FACSCanto™ II (BD Biosciences) was used for flow cytometry, and the expression levels of GFP and DsRed protein in the cells were quantified. […] The GFP/DsRed ratio per cell was computed using an analysis software FlowJo™ (TOMY Digital Biology Co., Ltd.), and degradation (knockdown) of the wild-type K-Ras protein by TUS-007 was determined from a shift in a graph.

T1 sequence (P01116 1-188 isoform P01116-2): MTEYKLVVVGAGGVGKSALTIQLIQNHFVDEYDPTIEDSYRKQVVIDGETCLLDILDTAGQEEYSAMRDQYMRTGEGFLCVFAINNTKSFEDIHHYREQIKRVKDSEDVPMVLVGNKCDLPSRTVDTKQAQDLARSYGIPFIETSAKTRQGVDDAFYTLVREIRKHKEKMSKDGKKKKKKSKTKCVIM

CC[C@@H](C)[C@H](NC(=O)CCCCCCNC(=O)[C@H](CC(C)C)NC(=O)CNC(=O)c1cc(Cl)ccc1Cl)C(=O)Nc1ccc2[nH]c(Cc3c[nH]c4ccccc34)nc2c1 [TUS-007]
degradation (knockdown) of wild-type K-Ras protein (shift of GFP/DsRed ratio graph) (24 hours after addition, vs control (DMSO)): degradation of the wild-type K-Ras protein was induced
degradation of wild-type K-Ras protein when MLN2238 is added together (both TUS-007 and MLN2238 added, compared with TUS-007 alone): degradation of the wild-type K-Ras protein was inhibited
